Test results reported in patent publication US20040122109A1, “Preparation for hair and/or scalp” (priority 2001, published 2004).

Key:
[1] = system: C3H mice; assay: Hair restoration test: hair growth score on the shaved back of C3H mice; format: in vivo, mouse; details: for Hair growth score of C3H mouse, before application: 7-week old male C3H mice in telogen, shaved back, baseline, score 1-5 (1 = skin pink, 5 = hair growth in 60% or more); for Hair growth score of C3H mouse, before application / Hair growth score of C3H mouse, after application: n = 7, Average ± S.D.; for Hair growth score of C3H mouse, after application: 10% in PEG1000 applied to shaved portion once a day, total of 14 times, score 1-5 (higher = more hair growth); for Hair restoration activity (in words): C3H mice, 10% in PEG1000, 14 applications
Description: The back of each of 7-week old male C3H mice in the telogen period of the hair cycle was carefully shaved, and then groups of seven mice each without wounds at the backs were subjected to a test. In a control group, only polyethylene glycol 1000 (PEG1000) used as a base was applied to each mouse, while in an evaluation group, 10% oxidized coenzyme Q10 or 10% reduced coenzyme Q10 (reduced coenzyme Q10:oxidized coenzyme Q10=95:5) was applied to the shaved portion once a day (total of 14 times). After the application, the back of each mouse was evaluated based on the scores below to evaluate the hair restoration activity of a compound.
2; Less than 30% of the shaved portion was discolored to gray.

[2] = system: hairless rats; assay: Prevention of hair removal: hair removal score of hairless rats; format: in vivo, rat; details: for Hair removal score of hairless rat, before application: 4-week old male hairless rats in pilose period, baseline, score 1-5 (1 = no hair removal, 5 = hair removal in 60% or more); for Hair removal score of hairless rat, before application / Hair removal score of hairless rat, 71 days after: n = 5, Average ± S.D.; for Hair removal score of hairless rat, 71 days after: 10% in PEG1000 applied to back once a day for 12 days, 71st day after application was terminated, score 1-5 (lower = less hair removal); for Activity of preventing hair removal (in words): hairless rats, 10% in PEG1000, once a day for 12 days
Description: 4-week old male hairless rats in the pilose period were used for evaluating the activity of preventing hair removal. The same samples as those used in Example 1 were used. In each group of five hairless rats, each of the samples was applied to the back of each rat once a day for 12 days, and then a hair removal state was observed after the application was stopped. The hair removal state was observed based on the following scores.
1; No hair removal was observed.
2; Hair became short in 30% or less of the applied region.

Row | SMILES | Hair growth score of C3H mouse, before application [1] | Hair growth score of C3H mouse, after application [1] | Hair restoration activity (in words) [1] | Hair removal score of hairless rat, before application [2] | Hair removal score of hairless rat, 71 days after [2] | Activity of preventing hair removal (in words) [2]
1 | COC1=C(OC)C(=O)C(C/C=C(\C)CC/C=C(\C)CC/C=C(\C)CC/C=C(\C)CC/C=C(\C)CC/C=C(\C)CC/C=C(\C)CC/C=C(\C)CC/C=C(\C)CCC=C(C)C)=C(C)C1=O [Oxidized coenzyme Q10, oxidized coenzyme Q10] | 1.0 ± 0.00 | 2.7 ± 0.35 | a hair restoration activity was observed | 1.0 ± 0.00 | 3.6 ± 0.24 | has the activity of preventing hair removal
2 | COc1c(O)c(C)c(C/C=C(\C)CC/C=C(\C)CC/C=C(\C)CC/C=C(\C)CC/C=C(\C)CC/C=C(\C)CC/C=C(\C)CC/C=C(\C)CC/C=C(\C)CCC=C(C)C)c(O)c1OC [Reduced coenzyme Q10, reduced coenzyme Q10] | 1.0 ± 0.00 | 3.2 ± 0.64 | a higher hair restoration activity was observed | 1.0 ± 0.00 | 3.0 ± 0.71 | has the activity of preventing hair removal
